Experimental data from ChEMBL document CHEMBL3046897, “Synthesis of 3-{4-[4-dimethylamino-6-(4-methyl-2-oxo-2H-chromen-7-yloxy)-[1,3,5]triazin-2-ylamino]-phenyl}-2-phenyl-5-(4-pyridin-2-yl-piperazin-1-ylmethyl)-thiazolidin-4-one and their biological evaluation” (2012).
In brackets after ≈: the same amount, converted by molar mass. Activity calls are given as the source filed them. The calls are words filed in the database; no cut-off is given here.

Columns and labels:
Candida albicans [1] = assay: Antifungal activity against Candida albicans at 100 ug/disk after 48 hr by paper disk diffusion method; format: functional; settings: read-out: IZ
Shigella flexneri [2] = assay: Antibacterial activity against Shigella flexneri after 24 hr by agar streak dilution method; format: functional
Aspergillus niger [3] = assay: Antifungal activity against Aspergillus niger after 48 hr by agar streak dilution method; format: functional
Klebsiella pneumoniae [4] = assay: Antibacterial activity against Klebsiella pneumoniae at 100 ug/disk after 24 hr by paper disk diffusion method; format: functional; settings: read-out: IZ
Staphylococcus aureus [5] = assay: Antibacterial activity against Staphylococcus aureus after 24 hr by agar streak dilution method; format: functional
Escherichia coli [6] = assay: Antibacterial activity against Escherichia coli at 100 ug/disk after 24 hr by paper disk diffusion method; format: functional; settings: read-out: IZ
Salmonella typhi [7] = assay: Antibacterial activity against Salmonella enterica subsp. enterica serovar Typhi at 100 ug/disk after 24 hr by paper disk diffusion method; format: functional; settings: read-out: IZ
Candida albicans [8] = assay: Antifungal activity against Candida albicans after 48 hr by agar streak dilution method; format: functional
Staphylococcus aureus [9] = assay: Antibacterial activity against Staphylococcus aureus at 100 ug/disc after 24 hr by paper disk diffusion method; format: functional; settings: read-out: IZ
Aspergillus clavatus [10] = assay: Antifungal activity against Aspergillus clavatus at 100 ug/disc after 48 hr by paper disk diffusion method; format: functional; settings: read-out: IZ
Klebsiella pneumoniae [11] = assay: Antibacterial activity against Klebsiella pneumoniae after 24 hr by agar streak dilution method; format: functional
Pseudomonas aeruginosa [12] = assay: Antibacterial activity against Pseudomonas aeruginosa at 100 ug/disk after 24 hr by paper disk diffusion method; format: functional; settings: read-out: IZ
Aspergillus clavatus [13] = assay: Antifungal activity against Aspergillus clavatus after 48 hr by agar streak dilution method; format: functional
Proteus vulgaris [14] = assay: Antibacterial activity against Proteus vulgaris at 100 ug/disk after 24 hr by paper disk diffusion method; format: functional; settings: read-out: IZ
Escherichia coli [15] = assay: Antibacterial activity against Escherichia coli after 24 hr by agar streak dilution method; format: functional
Proteus vulgaris [16] = assay: Antibacterial activity against Proteus vulgaris after 24 hr by agar streak dilution method; format: functional
Bacillus subtilis [17] = assay: Antibacterial activity against Bacillus subtilis at 100 ug/disk after 24 hr by paper disk diffusion method; format: functional; settings: read-out: IZ
Bacillus subtilis [18] = assay: Antibacterial activity against Bacillus subtilis after 24 hr by agar streak dilution method; format: functional
Aspergillus fumigatus [19] = assay: Antifungal activity against Aspergillus fumigatus at 100 ug/ml after 48 hr by agar streak dilution method; format: functional, organism-based
Pseudomonas aeruginosa [20] = assay: Antibacterial activity against Pseudomonas aeruginosa after 24 hr by agar streak dilution method; format: functional
Shigella flexneri [21] = assay: Antibacterial activity against Shigella flexneri at 100 ug/disc after 24 hr by paper disk diffusion method; format: functional; settings: read-out: IZ
Aspergillus niger [22] = assay: Antifungal activity against Aspergillus niger at 100 ug/disk after 48 hr by paper disk diffusion method; format: functional; settings: read-out: IZ
Salmonella typhi [23] = assay: Antibacterial activity against Salmonella enterica subsp. enterica serovar Typhi after 24 hr by agar streak dilution method; format: functional
Klebsiella pneumoniae [24] = assay: Antibacterial activity against Klebsiella pneumoniae at 100 ug/ml after 24 hr by agar streak dilution method; format: functional, organism-based
Candida albicans [25] = assay: Antifungal activity against Candida albicans at 100 ug/ml after 48 hr by agar streak dilution method; format: functional, organism-based
Aspergillus fumigatus [26] = assay: Antifungal activity against Aspergillus fumigatus after 48 hr by agar streak dilution method; format: functional
Aspergillus fumigatus [27] = assay: Antifungal activity against Aspergillus fumigatus at 100 ug/disc after 48 hr by paper disk diffusion method; format: functional; settings: read-out: IZ
Pseudomonas aeruginosa [28] = assay: Antibacterial activity against Pseudomonas aeruginosa at 100 ug/ml after 24 hr by agar streak dilution method; format: functional, organism-based
Proteus vulgaris [29] = assay: Antibacterial activity against Proteus vulgaris at 100 ug/ml after 24 hr by agar streak dilution method; format: functional, organism-based
Shigella flexneri [30] = assay: Antibacterial activity against Shigella flexneri at 100 ug/ml after 24 hr by agar streak dilution method; format: functional, organism-based
Salmonella typhi [31] = assay: Antibacterial activity against Salmonella enterica subsp. enterica serovar Typhi at 100 ug/ml after 24 hr by agar streak dilution method; format: functional, organism-based
Escherichia coli [32] = assay: Antibacterial activity against Escherichia coli at 100 ug/ml after 24 hr by agar streak dilution method; format: functional, organism-based

Row | SMILES | MIC (Shigella flexneri [2]) [µg/mL] | MIC (Aspergillus niger [3]) [µg/mL] | zone of inhibition at 100 µg/disc (Klebsiella pneumoniae [4]) [mm] | MIC (Staphylococcus aureus [5]) [µg/mL] | zone of inhibition at 100 µg/disc (Escherichia coli [6]) [mm] | zone of inhibition at 100 µg/disc (Salmonella typhi [7]) [mm] | zone of inhibition at 100 µg/disc (Staphylococcus aureus [9]) [mm] | zone of inhibition at 100 µg/disc (Aspergillus clavatus [10]) [mm] | MIC (Klebsiella pneumoniae [11]) [µg/mL] | zone of inhibition at 100 µg/disc (Pseudomonas aeruginosa [12]) [mm] | MIC (Aspergillus clavatus [13]) [µg/mL] | zone of inhibition at 100 µg/disc (Proteus vulgaris [14]) [mm] | MIC (Escherichia coli [15]) [µg/mL] | MIC (Proteus vulgaris [16]) [µg/mL] | zone of inhibition at 100 µg/disc (Bacillus subtilis [17]) [mm] | MIC (Bacillus subtilis [18]) [µg/mL] | MIC (Pseudomonas aeruginosa [20]) [µg/mL] | zone of inhibition at 100 µg/disc (Shigella flexneri [21]) [mm] | zone of inhibition at 100 µg/disc (Aspergillus niger [22]) [mm] | MIC (Salmonella typhi [23]) [µg/mL] | other results
1 | Cc1cc(=O)oc2cc(Oc3nc(Nc4ccc(N5C(=O)CSC5c5ccccc5)cc4)nc(N(C)C)n3)ccc12 (stereo not drawn) | 100 (≈ 176 µM) | 100 (≈ 176 µM) | < 10 | 100 (≈ 176 µM) | 14 | 11 | 12 | 13 | 100 (≈ 176 µM) | 15 | 100 (≈ 176 µM) | 10 | 100 (≈ 176 µM) | 100 (≈ 176 µM) | 13 | 100 (≈ 176 µM) | 100 (≈ 176 µM) | 12 | 11 | 100 (≈ 176 µM) | zone of inhibition at 100 µg/disc (Candida albicans [1]): 10 mm; MIC (Candida albicans [8]): 100 µg/mL (≈ 176 µM); Activity (Aspergillus fumigatus [19]): inactive
2 | COc1ccc(/C=N/c2ccc(Nc3nc(Oc4ccc5c(C)cc(=O)oc5c4)nc(N(C)C)n3)cc2)cc1OC | 100 (≈ 181 µM) | 100 (≈ 181 µM) | – | 50 (≈ 90.5 µM) | < 10 | 12 | 16 | < 10 | – | 10 | 100 (≈ 181 µM) | < 10 | 100 (≈ 181 µM) | 100 (≈ 181 µM) | 12 | 100 (≈ 181 µM) | 100 (≈ 181 µM) | 13 | 12 | 100 (≈ 181 µM) | Activity (Klebsiella pneumoniae [24]): inactive; Activity (Candida albicans [25]): inactive; Activity (Aspergillus fumigatus [19]): inactive
3 | Cc1cc(=O)oc2cc(Oc3nc(Nc4ccc(N5C(=O)CSC5c5ccccc5C(=O)O)cc4)nc(N(C)C)n3)ccc12 (stereo not drawn) | 100 (≈ 164 µM) | 100 (≈ 164 µM) | 12 | 100 (≈ 164 µM) | < 10 | < 10 | 16 | 13 | 100 (≈ 164 µM) | 14 | 100 (≈ 164 µM) | 11 | 100 (≈ 164 µM) | 100 (≈ 164 µM) | 14 | 100 (≈ 164 µM) | 100 (≈ 164 µM) | 14 | 12 | 100 (≈ 164 µM) | MIC (Aspergillus fumigatus [26]): 100 µg/mL (≈ 164 µM); Activity (Candida albicans [25]): inactive; zone of inhibition at 100 µg/disc (Aspergillus fumigatus [27]): 10 mm
4 | Cc1cc(=O)oc2cc(Oc3nc(Nc4ccc(/N=C/c5ccc([N+](=O)[O-])cc5)cc4)nc(N(C)C)n3)ccc12 | 100 (≈ 186 µM) | 100 (≈ 186 µM) | < 10 | 100 (≈ 186 µM) | < 10 | 13 | < 10 | 13 | 100 (≈ 186 µM) | – | 100 (≈ 186 µM) | – | 100 (≈ 186 µM) | – | < 10 | 100 (≈ 186 µM) | – | < 10 | < 10 | 100 (≈ 186 µM) | MIC (Aspergillus fumigatus [26]): 100 µg/mL (≈ 186 µM); Activity (Pseudomonas aeruginosa [28]): inactive; Activity (Candida albicans [25]): inactive; zone of inhibition at 100 µg/disc (Aspergillus fumigatus [27]): < 10 mm; Activity (Proteus vulgaris [29]): inactive
5 | Cc1cc(=O)oc2cc(Oc3nc(Nc4ccc(/N=C/c5ccccc5Br)cc4)nc(N(C)C)n3)ccc12 | – | 100 (≈ 175 µM) | < 10 | 100 (≈ 175 µM) | 14 | < 10 | 13 | 18 | 100 (≈ 175 µM) | 18 | 50 (≈ 87.5 µM) | 13 | 100 (≈ 175 µM) | 100 (≈ 175 µM) | 16 | 50 (≈ 87.5 µM) | 50 (≈ 87.5 µM) | – | 15 | 100 (≈ 175 µM) | zone of inhibition at 100 µg/disc (Candida albicans [1]): 19 mm; MIC (Aspergillus fumigatus [26]): 25 µg/mL (≈ 43.7 µM); Activity (Shigella flexneri [30]): inactive; MIC (Candida albicans [8]): 50 µg/mL (≈ 87.5 µM); zone of inhibition at 100 µg/disc (Aspergillus fumigatus [27]): 20 mm
6 | Cc1cc(=O)oc2cc(Oc3nc(Nc4ccc(/N=C/c5ccccc5)cc4)nc(N(C)C)n3)ccc12 | – | 100 (≈ 203 µM) | – | 100 (≈ 203 µM) | < 10 | < 10 | 11 | < 10 | – | 12 | 100 (≈ 203 µM) | – | 100 (≈ 203 µM) | – | 10 | 100 (≈ 203 µM) | 100 (≈ 203 µM) | – | < 10 | 100 (≈ 203 µM) | Activity (Shigella flexneri [30]): inactive; Activity (Klebsiella pneumoniae [24]): inactive; Activity (Candida albicans [25]): inactive; Activity (Proteus vulgaris [29]): inactive; Activity (Aspergillus fumigatus [19]): inactive
7 | Cc1cc(=O)oc2cc(Oc3nc(Nc4ccc(/N=C/c5ccccc5C(=O)O)cc4)nc(N(C)C)n3)ccc12 | 100 (≈ 186 µM) | 100 (≈ 186 µM) | < 10 | 100 (≈ 186 µM) | – | – | 13 | < 10 | 100 (≈ 186 µM) | 11 | 100 (≈ 186 µM) | – | – | – | 11 | 100 (≈ 186 µM) | 100 (≈ 186 µM) | 11 | 10 | – | Activity (Salmonella typhi [31]): inactive; MIC (Aspergillus fumigatus [26]): 100 µg/mL (≈ 186 µM); Activity (Escherichia coli [32]): inactive; Activity (Candida albicans [25]): inactive; zone of inhibition at 100 µg/disc (Aspergillus fumigatus [27]): < 10 mm; Activity (Proteus vulgaris [29]): inactive
8 | Cc1cc(=O)oc2cc(Oc3nc(Nc4ccc(N5C(=O)C(CN6CCN(c7ccccn7)CC6)SC5c5ccc(Cl)cc5)cc4)nc(N(C)C)n3)ccc12 (stereo not drawn) | 6.25 (≈ 8.05 µM) | 50 (≈ 64.4 µM) | 22 | 25 (≈ 32.2 µM) | 23 | 24 | 21 | 25 | 25 (≈ 32.2 µM) | 18 | 12.5 (≈ 16.1 µM) | 25 | 50 (≈ 64.4 µM) | 12.5 (≈ 16.1 µM) | 18 | 50 (≈ 64.4 µM) | 50 (≈ 64.4 µM) | 27 | 18 | 12.5 (≈ 16.1 µM) | zone of inhibition at 100 µg/disc (Candida albicans [1]): 26 mm; MIC (Aspergillus fumigatus [26]): 12.5 µg/mL (≈ 16.1 µM); MIC (Candida albicans [8]): 6.25 µg/mL (≈ 8.05 µM); zone of inhibition at 100 µg/disc (Aspergillus fumigatus [27]): 21 mm
9 | Cc1cc(=O)oc2cc(Oc3nc(Nc4ccc(/N=C/c5ccc(F)cc5)cc4)nc(N(C)C)n3)ccc12 | 100 (≈ 196 µM) | 50 (≈ 97.9 µM) | < 10 | 25 (≈ 49 µM) | 16 | 15 | 20 | 19 | 100 (≈ 196 µM) | 20 | 50 (≈ 97.9 µM) | 17 | 50 (≈ 97.9 µM) | 50 (≈ 97.9 µM) | 18 | 50 (≈ 97.9 µM) | 50 (≈ 97.9 µM) | 14 | 20 | 50 (≈ 97.9 µM) | zone of inhibition at 100 µg/disc (Candida albicans [1]): 21 mm; MIC (Aspergillus fumigatus [26]): 100 µg/mL (≈ 196 µM); MIC (Candida albicans [8]): 25 µg/mL (≈ 49 µM); zone of inhibition at 100 µg/disc (Aspergillus fumigatus [27]): 14 mm
